Converted amounts (≈) assume the structure as drawn.
Legend:
Type in all cases: functional
Staphylococcus aureus [1] = test: Minimum inhibitory concentration of compound against Ery-R Staphylococcus aureus 96:11480 was determined
Streptococcus pneumoniae [2] = test: Minimum inhibitory concentration of compound against Ery-R Streptococcus pneumoniae 303 was determined
Streptococcus pyogenes [3] = test: Minimum inhibitory concentration of compound against Ery-S Streptococcus pyogenes ATCC 19615 was determined
Streptococcus pneumoniae [4] = test: Minimum inhibitory concentration of compound against Ery-R Streptococcus pneumoniae 163 was determined
Streptococcus pneumoniae [5] = test: Minimum inhibitory concentration of compound against Ery-S Streptococcus pneumoniae ATCC 49619 was determined
Staphylococcus aureus [6] = test: Minimum inhibitory concentration of compound against Ery-S Staphylococcus aureus ATCC 29213 was determined
Haemophilus influenzae [7] = test: Minimum inhibitory concentration of compound against Ery-S Haemophilus influenzae ATCC 49247 was determined
Streptococcus pneumoniae [8] = test: Minimum inhibitory concentration of compound against Streptococcus pneumoniae ATCC 49163 Ery-R was determined
Streptococcus pyogenes [9] = test: Minimum inhibitory concentration of compound against Streptococcus pyogenes ATCC 13029 Ery-R was determined
Streptococcus pneumoniae [10] = test: Minimum inhibitory concentration of compound against Streptococcus pneumoniae ATCC 49303 Ery-R was determined
Streptococcus pneumoniae [11] = test: Minimum inhibitory concentration of compound against Streptococcus pneumoniae ATCC 49619 Ery-S was determined
Haemophilus influenzae [12] = test: Minimum inhibitory concentration of compound against Haemophilus influenzae ATCC 49247 Ery-S was determined
Streptococcus pyogenes [13] = test: Minimum inhibitory concentration of compound against Streptococcus pyogenes ATCC 19615 Ery-S was determined
Staphylococcus aureus [14] = test: Minimum inhibitory concentration of compound against Staphylococcus aureus ATCC 23029 Ery-S was determined
Staphylococcus aureus [15] = test: Minimum inhibitory concentration of compound against Staphylococcus aureus ATCC 96:11480 Ery-R was determined
Streptococcus pyogenes [16] = test: Minimum inhibitory concentration of compound against Ery-R Streptococcus pyogenes 1721 was determined
Streptococcus pyogenes [17] = test: Minimum inhibitory concentration of compound against Ery-R Streptococcus pyogenes 1850 was determined
Streptococcus pyogenes [18] = test: Minimum inhibitory concentration of compound against Ery-R Streptococcus pyogenes 3262 was determined
Streptococcus pyogenes [19] = test: Minimum inhibitory concentration of compound against Ery-R Streptococcus pyogenes 3029 was determined
Streptococcus pyogenes [20] = test: Minimum inhibitory concentration of compound against Ery-R Streptococcus pyogenes ATCC 19615 was determined
Streptococcus pneumoniae [21] = test: Minimum inhibitory concentration of compound against Ery-R Streptococcus pneumoniae 5032 was determined
Streptococcus pneumoniae [22] = test: Minimum inhibitory concentration of compound against Ery-S Streptococcus pneumoniae 3773 was determined
Streptococcus pneumoniae [23] = test: 1 Minimum inhibitory concentration of compound against Ery-R Streptococcus pneumoniae 163 was determined
Streptococcus pyogenes [24] = test: Minimum inhibitory concentration of compound against Ery-R Streptococcus pyogenes 13029 was determined
Staphylococcus aureus [25] = test: Minimum inhibitory concentration of compound against Ery-S Staphylococcus aureus ATCC 23029 was determined

CC[C@H]1OC(=O)[C@H](C)C(=O)[C@H](C)[C@@H](O[C@@H]2OC[C@@H](O)[C@H](N(C)C)[C@H]2O)[C@@](C)(OC)C[C@@H](C)C(=O)[C@H](C)[C@H]2N(CCCCn3cc(-c4ccccn4)nn3)C(=O)O[C@]12C
MIC (Staphylococcus aureus [1]): 4 µg/mL (≈ 4.91 µM)
MIC (Streptococcus pneumoniae [2]): 16 µg/mL (≈ 19.6 µM)
MIC (Streptococcus pyogenes [3]): ≤ 0.125 µg/mL
MIC (Streptococcus pneumoniae [4]): 2 µg/mL (≈ 2.45 µM)
MIC (Streptococcus pneumoniae [5]): 4 µg/mL (≈ 4.91 µM)
MIC (Staphylococcus aureus [6]): 4 µg/mL (≈ 4.91 µM)
MIC (Haemophilus influenzae [7]): > 64 µg/mL

CC[C@H]1OC(=O)[C@H](C)C(=O)[C@H](C)[C@@H](O[C@@H]2O[C@H](COCc3ccccc3)C[C@H](N(C)C)[C@H]2O)[C@@](C)(OC)C[C@@H](C)C(=O)[C@H](C)[C@H]2N(CCCCn3cc(-c4ccccn4)nn3)C(=O)O[C@]12C
MIC (Streptococcus pneumoniae [8]): ≤ 0.125 µg/mL
MIC (Streptococcus pyogenes [9]): 0.5 µg/mL (≈ 0.544 µM)
MIC (Streptococcus pneumoniae [10]): ≤ 0.125 µg/mL
MIC (Streptococcus pneumoniae [11]): ≤ 0.125 µg/mL
MIC (Haemophilus influenzae [12]): 64 µg/mL (≈ 69.6 µM)

CC[C@H]1OC(=O)[C@H](C)C(=O)[C@H](C)[C@@H](O[C@@H]2O[C@H](COCc3ccccc3)[C@@H](O)[C@H](N(C)C)[C@H]2O)[C@@](C)(OC)C[C@@H](C)C(=O)[C@H](C)[C@H]2N(CCCCn3cc(-c4ccccn4)nn3)C(=O)O[C@]12C
MIC (Streptococcus pneumoniae [8]): ≤ 0.125 µg/mL
MIC (Streptococcus pyogenes [9]): 2 µg/mL (≈ 2.14 µM)
MIC (Streptococcus pyogenes [13]): ≤ 0.125 µg/mL
MIC (Staphylococcus aureus [14]): ≤ 0.125 µg/mL
MIC (Streptococcus pneumoniae [10]): ≤ 0.125 µg/mL
MIC (Staphylococcus aureus [15]): ≤ 0.125 µg/mL
MIC (Streptococcus pneumoniae [11]): ≤ 0.125 µg/mL
MIC (Haemophilus influenzae [12]): 64 µg/mL (≈ 68.4 µM)

CC[C@H]1OC(=O)[C@@](C)(F)C(=O)[C@H](C)[C@@H](O[C@@H]2O[C@H](COCc3ccccc3)[C@@H](O)[C@H](N(C)C)[C@H]2O)[C@@](C)(OC)C[C@@H](C)C(=O)[C@H](C)[C@H]2N(CCCCn3cc(-c4cccc(N)c4)nn3)C(=O)O[C@]12C
MIC (Streptococcus pyogenes [16]): 8 µg/mL (≈ 8.27 µM)
MIC (Streptococcus pyogenes [17]): 0.25 µg/mL (≈ 0.258 µM)
MIC (Streptococcus pneumoniae [2]): ≤ 0.125 µg/mL
MIC (Streptococcus pyogenes [18]): 4 µg/mL (≈ 4.14 µM)
MIC (Streptococcus pyogenes [19]): 0.5 µg/mL (≈ 0.517 µM)
MIC (Streptococcus pyogenes [20]): ≤ 0.125 µg/mL
MIC (Streptococcus pneumoniae [21]): 4 µg/mL (≈ 4.14 µM)
MIC (Streptococcus pneumoniae [4]): ≤ 0.125 µg/mL
MIC (Streptococcus pneumoniae [5]): ≤ 0.125 µg/mL
MIC (Streptococcus pneumoniae [22]): 8 µg/mL (≈ 8.27 µM)
MIC (Haemophilus influenzae [7]): 4 µg/mL (≈ 4.14 µM)

CC[C@H]1OC(=O)[C@@](C)(F)C(=O)[C@H](C)[C@@H](O[C@@H]2O[C@H](COCc3ccccc3)C[C@H](N(C)C)[C@H]2O)[C@@](C)(OC)C[C@@H](C)C(=O)[C@H](C)[C@H]2N(CCCCn3cc(-c4cccc(N)c4)nn3)C(=O)O[C@]12C
MIC (Streptococcus pyogenes [16]): 8 µg/mL (≈ 8.41 µM)
MIC (Streptococcus pyogenes [17]): 0.25 µg/mL (≈ 0.263 µM)
MIC (Streptococcus pneumoniae [2]): ≤ 0.125 µg/mL
MIC (Streptococcus pyogenes [18]): 0.5 µg/mL (≈ 0.526 µM)
MIC (Streptococcus pyogenes [19]): ≤ 0.125 µg/mL
MIC (Streptococcus pneumoniae [21]): 0.25 µg/mL (≈ 0.263 µM)
MIC (Streptococcus pneumoniae [4]): ≤ 0.125 µg/mL
MIC (Streptococcus pneumoniae [5]): ≤ 0.125 µg/mL
MIC (Streptococcus pneumoniae [22]): 4 µg/mL (≈ 4.21 µM)
MIC (Haemophilus influenzae [7]): 4 µg/mL (≈ 4.21 µM)

CC[C@H]1OC(=O)[C@H](C)C(=O)[C@H](C)[C@@H](O[C@@H]2O[C@H](C)C[C@H](N(C)C)[C@H]2O)[C@@](C)(OC)C[C@@H](C)C(=O)[C@H](C)[C@H]2N(CCCCn3cc(-c4ccccn4)nn3)C(=O)O[C@]12C
MIC (Staphylococcus aureus [1]): 0.125 µg/mL (≈ 0.154 µM)
MIC (Streptococcus pneumoniae [2]): ≤ 0.125 µg/mL
MIC (Streptococcus pyogenes [19]): > 64 µg/mL
MIC (Streptococcus pyogenes [3]): ≤ 0.125 µg/mL
MIC (Streptococcus pneumoniae [4]): ≤ 0.125 µg/mL
MIC (Streptococcus pneumoniae [5]): ≤ 0.125 µg/mL
MIC (Staphylococcus aureus [6]): ≤ 0.125 µg/mL
MIC (Haemophilus influenzae [7]): 4 µg/mL (≈ 4.92 µM)

CC[C@H]1OC(=O)[C@H](C)C(=O)[C@H](C)[C@@H](O[C@@H]2O[C@H](C)[C@@H](O)[C@H](O)[C@H]2O)[C@@](C)(OC)C[C@@H](C)C(=O)[C@H](C)[C@H]2N(CCCCn3cc(-c4ccccn4)nn3)C(=O)O[C@]12C
MIC (Staphylococcus aureus [1]): > 64 µg/mL
MIC (Streptococcus pyogenes [13]): 8 µg/mL (≈ 9.98 µM)
MIC (Streptococcus pneumoniae [2]): 16 µg/mL (≈ 20 µM)
MIC (Streptococcus pneumoniae [11]): 4 µg/mL (≈ 4.99 µM)
MIC (Streptococcus pneumoniae [4]): 2 µg/mL (≈ 2.49 µM)
MIC (Staphylococcus aureus [6]): > 64 µg/mL
MIC (Haemophilus influenzae [7]): > 64 µg/mL

CC[C@H]1OC(=O)[C@H](C)C(=O)[C@H](C)[C@@H](O[C@@H]2O[C@H](C)[C@@H](O)[C@H](N(C)C)[C@H]2O)[C@@](C)(OC)C[C@@H](C)C(=O)[C@H](C)[C@H]2N(CCCCn3cc(-c4ccccn4)nn3)C(=O)O[C@]12C
MIC (Staphylococcus aureus [1]): 0.25 µg/mL (≈ 0.302 µM)
MIC (Streptococcus pneumoniae [2]): 16 µg/mL (≈ 19.3 µM)
MIC (Streptococcus pyogenes [19]): > 64 µg/mL
MIC (Streptococcus pyogenes [3]): ≤ 0.125 µg/mL
MIC (Streptococcus pneumoniae [4]): 0.5 µg/mL (≈ 0.603 µM)
MIC (Streptococcus pneumoniae [5]): ≤ 0.125 µg/mL
MIC (Staphylococcus aureus [6]): ≤ 0.125 µg/mL
MIC (Haemophilus influenzae [7]): 16 µg/mL (≈ 19.3 µM)

CC[C@H]1OC(=O)[C@@](C)(F)C(=O)[C@H](C)[C@@H](O[C@@H]2O[C@H](CO)[C@@H](O)[C@H](N(C)C)[C@H]2O)[C@@](C)(OC)C[C@@H](C)C(=O)[C@H](C)[C@H]2N(CCCCn3cc(-c4cccc(N)c4)nn3)C(=O)O[C@]12C
MIC (Streptococcus pyogenes [16]): > 32 µg/mL
MIC (Streptococcus pyogenes [17]): > 32 µg/mL
MIC (Streptococcus pneumoniae [2]): ≤ 0.125 µg/mL
MIC (Streptococcus pyogenes [18]): > 32 µg/mL
MIC (Streptococcus pyogenes [19]): > 32 µg/mL
MIC (Streptococcus pyogenes [20]): ≤ 0.125 µg/mL
MIC (Streptococcus pneumoniae [21]): > 32 µg/mL
MIC (Streptococcus pneumoniae [4]): ≤ 0.125 µg/mL
MIC (Streptococcus pneumoniae [5]): ≤ 0.125 µg/mL
MIC (Streptococcus pneumoniae [22]): > 32 µg/mL
MIC (Haemophilus influenzae [7]): > 32 µg/mL

CC[C@H]1OC(=O)[C@H](C)C(=O)[C@H](C)[C@@H](O[C@@H]2O[C@H](CO)[C@@H](O)[C@H](N(C)C)[C@H]2O)[C@@](C)(OC)C[C@@H](C)C(=O)[C@H](C)[C@H]2N(CCCCn3cc(-c4ccccn4)nn3)C(=O)O[C@]12C
MIC (Staphylococcus aureus [1]): 64 µg/mL (≈ 75.7 µM)
MIC (Streptococcus pneumoniae [2]): ≤ 0.125 µg/mL
MIC (Streptococcus pneumoniae [23]): 4 µg/mL (≈ 4.73 µM)
MIC (Streptococcus pyogenes [19]): > 64 µg/mL
MIC (Streptococcus pyogenes [3]): ≤ 0.125 µg/mL
MIC (Streptococcus pneumoniae [5]): ≤ 0.125 µg/mL
MIC (Staphylococcus aureus [6]): 4 µg/mL (≈ 4.73 µM)
MIC (Haemophilus influenzae [7]): 64 µg/mL (≈ 75.7 µM)

CC[C@H]1OC(=O)[C@H](C)[C@@H](O[C@H]2C[C@@](C)(OC)[C@@H](O)[C@H](C)O2)[C@H](C)[C@@H](O[C@@H]2O[C@H](C)C[C@H](N(C)C)[C@H]2O)[C@](C)(O)C[C@@H](C)CN(C)[C@H](C)[C@@H](O)[C@]1(C)O [AZITHROMYCIN]
MIC (Streptococcus pyogenes [16]): > 64 µg/mL
MIC (Streptococcus pyogenes [24]): > 64 µg/mL
MIC (Staphylococcus aureus [1]): ≥ 64 µg/mL
MIC (Streptococcus pyogenes [17]): > 64 µg/mL
MIC (Streptococcus pneumoniae [2]): > 64 µg/mL
MIC (Staphylococcus aureus [25]): 1 µg/mL (≈ 1.34 µM)
MIC (Streptococcus pyogenes [18]): > 64 µg/mL
MIC (Streptococcus pneumoniae [21]): > 64 µg/mL
MIC (Streptococcus pyogenes [3]): ≤ 0.125 µg/mL
MIC (Streptococcus pneumoniae [4]): 8 µg/mL (≈ 10.7 µM)
MIC (Streptococcus pneumoniae [5]): ≤ 0.125 µg/mL
MIC (Streptococcus pneumoniae [22]): > 64 µg/mL
MIC (Haemophilus influenzae [7]): 4 µg/mL (≈ 5.34 µM)

CC[C@H]1OC(=O)[C@H](C)C(=O)[C@H](C)[C@@H](O[C@@H]2O[C@H](C)C[C@H](N(C)C)[C@H]2O)[C@](C)(OC)C[C@@H](C)C(=O)[C@H](C)[C@H]2N(CCCCn3cnc(-c4cccnc4)c3)C(=O)O[C@]12C [TELITHROMYCIN]
MIC (Streptococcus pyogenes [16]): 64 µg/mL (≈ 78.8 µM)
MIC (Staphylococcus aureus [1]): ≤ 0.125 µg/mL
MIC (Streptococcus pyogenes [17]): 8 µg/mL (≈ 9.85 µM)
MIC (Streptococcus pneumoniae [2]): ≤ 0.125 µg/mL
MIC (Streptococcus pyogenes [18]): 32 µg/mL (≈ 39.4 µM)
MIC (Streptococcus pyogenes [19]): 16 µg/mL (≈ 19.7 µM)
MIC (Streptococcus pneumoniae [21]): 0.5 µg/mL (≈ 0.616 µM)
MIC (Streptococcus pneumoniae [11]): ≤ 0.125 µg/mL
MIC (Streptococcus pyogenes [3]): ≤ 0.125 µg/mL
MIC (Streptococcus pneumoniae [4]): ≤ 0.125 µg/mL
MIC (Streptococcus pneumoniae [22]): 1 µg/mL (≈ 1.23 µM)
MIC (Staphylococcus aureus [6]): ≤ 0.125 µg/mL
MIC (Haemophilus influenzae [7]): 4 µg/mL (≈ 4.93 µM)
